Experimental data taken from patent US6630310B1, “Assay for binding between carbohydrate and glycolipid” (Biopolymer Engineering Pharmaceutical, Inc., priority 1996, dated 2003).

Key:
[1] = Competition of ^3H-PGG-Glucan binding to lactosyl ceramide in 96-well plate assay (FIGS. 14, 15); design: species or system bovine; settings: FIGS. 14 and 15
Excerpt: (§1) FIG. 14 is a graph of the comparison of underivatized, aqueous soluble β(1-3)-glucan and single helix competition of ^3H-underivatized, aqueous soluble β(1-3)-glucan binding in three assay formats. Underivatized, aqueous soluble β(1-3)-glucan or single helix glucan was used at designated concentrations to compete for ^3H-underivatized, aqueous soluble β(1-3)-glucan binding to lactosyl ceramide (LacCer) in a 96-well plate (triangles), or to lactosyl ceramide in reconstituted membranes (squares), or to human leukocyte membranes (circles). Open symbols represent underivatized, aqueous soluble β(1-3) glucan, and closed symbols represent single helix. Maximum competition was assigned at the highest concentration of underivatized, aqueous soluble β(1-3)-glucan used as competitor in each type of assay.
FIG. 15 is a graphic illustration of data showing that underivatized, aqueous soluble β(1-3) glucan and high molecular weight underivatized, aqueous soluble β(1-3) glucan (Network) compete more effectively for ^3H-underivatized, aqueous soluble β(1-3)-glucan binding to lactosyl ceramide in a 96-well plate assay than do single helix or laminarin. […]
Lactosyl ceramide or the sample to be measured was suspended in ethanol. […] The plate was incubated at 60° C. for 5 minutes, then supernatants were removed and counted.

[2] = Competition of ^3H-PGG-Glucan binding to GalCer II
Method: Lactosyl ceramide or the sample to be measured was suspended in ethanol. Aliquots as specified were added in triplicate to the wells of a 96-well plate and air dried. The following components were premixed, then 100 μL was added to each well: saline (10 μL) or unlabelled, underivatized, aqueous soluble β(1-3)-glucan (10 μL of a 10 mg/ml stock), ^3H-underivatized, aqueous soluble β(1-3) glucan (10 μL of a 10 μg/ml stock), and HBSS (80 μL). Plates were incubated at 37° C. for 1.5 to 2 hours, then supernatants were removed from each well and discarded. Wells were rinsed with HBSS (200 μL) and SOLVABLE™ (100 μL) was added. The plate was incubated at 60° C. for 5 minutes, then supernatants were removed and counted.

[3] = tested on: neutrophil (human blood leukocyte) membranes; assay: ^3H-PGG-Glucan binding to neutrophil membranes; settings: PMN versus mononuclear cells
Method: The distribution of the receptor for underivatized, aqueous soluble β(1-3)-glucan across various cell lines and human tissues was determined by assessing the binding of radioactively labeled underivatized, aqueous soluble β(1-3)-glucan to membranes derived from a variety of cell types (see Table 2). The amount of radioactively labeled underivatized, aqueous soluble β(1-3)-glucan binding is expressed as mean±standard deviation in ng/mg membrane protein. The non-specific binding is defined as radioactively labeled underivatized, aqueous soluble β(1-3)-glucan bound in the presence of greater than 100-fold excess unlabeled underivatized, aqueous soluble β(1-3)-glucan. The specific binding is determined by (Total Binding)−(Non-Specific Binding), with the number in parenthesis in Table 2 representing the percent total binding. Quantitation of complement receptor 3 (CR3) was carried out by flow cytometry using fluorescently-labeled anti-CD11b, and data are expressed as mean channel fluorescence (MCF) in arbitrary fluorescence units; background fluorescence for isotype controls were subtracted. The neutrophil sample was greater than 95 percent neutrophils by histology. […]
Membranes were diluted to 2 to 5 mg/ml in HBSS with and without 1 mg/ml BSA. […] No radioactivity was found in the oil layer in the absence of added membranes. […]

[4] = Competition of ^3H-PGG-Glucan binding to lactosyl ceramide in reconstituted membranes (FIG. 14)
Excerpt: as §1
Membranes were prepared from the receptor-negative cell line, U937, and extracted with chloroform/methanol as described above. The upper and lower layers were combined after removal of the proteinaceous interphase and dried under a stream of argon with the sample to be assayed for binding (lactosyl ceramide or fractions from the purification). […]
The dried lipid/sample preparations were resuspended in HBSS (500 μL) by brief sonication, and centrifuged for 10 minutes at 12,000×g. […] Pellets were then dissolved in SOLVABLE™, scintillation fluid was added, and radioactivity was measured.

- competition for ^3H-underivatized, aqueous soluble β(1-3)-glucan binding to LacCer in the 96-well plate assay (in words) [1]: competes
- % Control Binding ([2]; ligand 0.01 mg hexose/mL): 23.6%
- % Control Binding ([2]; ligand 0.1 mg hexose/mL): 3.0%
- % Control Binding ([2]; ligand 1.0 mg hexose/mL): 1.4%
- competition for ^3H-underivatized, aqueous soluble β(1-3)-glucan binding to LacCer in the reconstitution assay (in words) [4]: competes
Substance: underivatized, aqueous soluble β(1-3)-glucan [PGG-Glucan]
- specific binding of human peripheral blood PMN relative to mononuclear cells [3]: five to ten
